From article PMC8427292, “Identification and Characterization of Antimicrobial Peptides From Butterflies: An Integrated Bioinformatics and Experimental Study” (Frontiers in Microbiology, 2021)
No end group written: not given here.

Tests used:
Escherichia coli biofilm = experiment: Antibiofilm assay (crystal violet); assay type: cell-based; design: unit not given here; conditions: E. coli, 570 nm; for MBIC: biofilm formed in presence of AMPs (prevention); for MBEC: pre-formed biofilm (eradication)
Method: (§1) Biofilms of the aforementioned microbes were allowed to form in microtiter plates under respective culture conditions in the absence (eradication) or presence (prevention) of AMPs. After incubation, the culture supernatant was discarded, and each well was gently rinsed to remove planktonic bacteria. Biofilms were fixed with methanol and stained with 0.1% crystal violet for 20 min; then the dye bound to the cells was resolubilized with ethanol, and the absorbance of the solution was evaluated at 570 nm using a microplate reader ([Abouelhassan et al., 2017]).

[1] = system: Staphylococcus aureus biofilm; experiment: Antibiofilm assay (crystal violet); assay type: cell-based; design: unit not given here; conditions: S. aureus, 570 nm; for MBEC: biofilm eradication; for MBIC: biofilm prevention
Method: as §1

Candida albicans biofilm = experiment: Antibiofilm assay (crystal violet); assay type: cell-based; conditions: C. albicans, 570 nm; for MBEC: biofilm eradication; for MBIC: biofilm prevention
Method: as §1

C. albicans = experiment: In vivo antimicrobial assay, skin infection mouse model; conditions: neutropenic mice, s.c. 100 μl of 1.0 × 10^8 CFU⋅ml^–1 C. albicans; 100 μl AMP at MIC s.c. daily from 12 h post-infection; day 4; vs control
Method: (§2) In vivo antimicrobial activities of the designed AMPs were examined in neutropenic mice following subcutaneous inoculation of 100 μl of 1.0 × 10^8 CFU⋅ml^–1 E. coli, S. aureus, or C. albicans ([Lee et al., 2005]). At 12 h post-infection, 100 μl of AMPs at the respective MIC value was applied by subcutaneous injection each day. Mice were sacrificed on day 4, and the infected area was carefully excised and homogenized. The CFU count was determined after overnight incubation of the homogenate aliquots. All animal care and experiments were performed in compliance with institutional and government guidelines and were approved by the Peking Union Medical College Hospital Animal Care and Use Committee.

E. coli = experiment: as above; conditions: neutropenic mice, s.c. 100 μl of 1.0 × 10^8 CFU⋅ml^–1 E. coli; 100 μl AMP at MIC s.c. daily from 12 h post-infection; day 4; vs control
Method: as §2

S. aureus = experiment: as above; conditions: neutropenic mice, s.c. 100 μl of 1.0 × 10^8 CFU⋅ml^–1 S. aureus; 100 μl AMP at MIC s.c. daily from 12 h post-infection; day 4; vs control
Method: as §2

| Substance | MBIC (Escherichia coli biofilm) | MBEC (Escherichia coli biofilm) | MBEC [1] | MBIC [1] | MBEC (Candida albicans biofilm) | MBIC (Candida albicans biofilm) | CFU count in infected skin (C. albicans) | CFU count in infected skin (E. coli) | CFU count in infected skin (S. aureus) |
| --- | --- | --- | --- | --- | --- | --- | --- | --- | --- |
| DKLIGSCVWGAVNYTSDCNAECKRRGYKGGHCGSFANVNCWCET (disulfide (positions not given here)) [DefA, designed synthetic butterfly defensin analog] | 8 | 32 | 16 | 4 | – | – | – | – | – |
| GCVFYECIARCRQRGYLSGGYCTINGCQCL-NH2 (disulfide (positions not given here)) [DefB, designed synthetic butterfly defensin analog, C-terminally amidated] | 8 | 32 | 16 | 2 | – | – | – | – | – |
| GKIPIGAIKKGAKAVGKGLKALNIASTAHDIYSFHHKKKKH [MorA, designed synthetic butterfly moricin analog] | 4 | 8 | 16 | 4 | 16 | 4 | suppress proliferation | – | – |
| KWKIFKKIEKVGRNIRDGIIKAGPAVQVVGQAATIYKGK [CecB, designed synthetic butterfly cecropin analog] | 2 | 8 | 16 | 2 | 32 | 16 | – | attenuate growth | attenuate growth |
